From patent US10517294B2, “Dihydrothiophene derivatives as insecticidal compounds” (priority 2012, dated 2019)

Tests used:
Format in all cases: in vivo
[1] = tested on: Euschistus heros; experiment: Euschistus heros (neotropical brown stink bug), sprayed soybean plants; settings: 120 h, application rate 50 ppm, N2 nymphs on sprayed soybean plants, 5 days after infestation, read-out: control (at least one of mortality, growth inhibition)
Experimental: Two weeks old soybean plants were sprayed in a turn table spray chamber with the diluted spray solutions. After drying 2 soybean seeds were added and plants were infested with 10 N2 nymphs of the neotropical brown stink bug Euschistus heros in plastic test boxes. The samples were assessed for mortality and growth inhibition 5 days after infestation. Control of Euschistus heros by a test sample is noted when at least one of mortality and growth inhibition is better than the untreated sample.

[2] = tested on: Thrips tabaci; experiment: Thrips tabaci (onion thrips), sprayed sunflower leaf discs; settings: foliar, 144 h, application rate 200 ppm, mixed ages on sunflower leaf discs, 6 days after infestation, read-out: control (mortality)
Experimental: (§1) Sunflower leaf discs were placed on agar in 24-well microtiter plates and sprayed with aqueous test solutions prepared from 10′000 ppm DMSO stock solutions. After drying the leaf discs were infested with a thrips population of mixed ages. The samples were assessed for mortality 6 days after infestation.

[3] = tested on: Plutella xylostella; experiment: Plutella xylostella (diamond back moth), artificial diet; settings: 120 h, application rate 200 ppm, L2 larvae on artificial diet, 5 days after infestation, read-out: control (at least one of mortality, growth inhibition)
Experimental: (§2) 24-well microtiter plates with artificial diet were treated with aqueous test solutions prepared from 10′000 ppm DMSO stock solutions by pipetting. After drying, the plates were infested with L2 larvae (10 to 15 per well). The samples were assessed for mortality and growth inhibition 5 days after infestation. Control of Plutella xyllostella by a test sample is noted when at least one of mortality and growth inhibition is better than the untreated sample.

[4] = tested on: Diabrotica balteata; experiment: Diabrotica balteata (corn root worm), artificial diet; settings: 120 h, application rate 200 ppm, L2 larvae on artificial diet, 5 days after infestation, read-out: control (at least one of mortality, growth inhibition)
Experimental: as §2, with “(6” for “(10”, “10” for “15”, “Diabrotica balteata” for “Plutella xyllostella”

[5] = tested on: Heliothis virescens; experiment: Heliothis virescens (tobacco budworm), eggs on artificial diet; settings: application rate 200 ppm, eggs 0-24 h old on artificial diet, 5 days after infestation, read-out: control (at least one of egg mortality, larval mortality, growth inhibition)
Experimental: Eggs (0-24 h old) were placed in 24-well microtiter plates on artificial diet and treated with aqueous test solutions prepared from 10′000 ppm DMSO stock solutions by pipetting. The samples were assessed for egg mortality, larval mortality and growth inhibition 5 days after infestation. Control of Heliothis virescens by a test sample is noted when at least one of egg mortality, larval mortality and growth inhibition is better than the untreated sample.

[6] = tested on: Tetranychus urticae; experiment: Tetranychus urticae (two-spotted spider mite), sprayed bean leaf discs; settings: foliar, 192 h, application rate 200 ppm, mixed ages on bean leaf discs, 8 days after infestation, read-out: control (mortality, mobile stages)
Experimental: as §1, with “Bean” for “Sunflower”, “discs” for “discs were placed”, “were” for “and”, “mite” for “thrips”, “(mobile stages) 8” for “6”

[7] = tested on: Spodoptera littoralis; experiment: Spodoptera littoralis (Egyptian cotton leaf worm), sprayed cotton leaf discs; settings: foliar, 72 h, application rate 200 ppm, L1 larvae on cotton leaf discs, 3 days after infestation, read-out: control (at least one of mortality, anti-feedant effect, growth inhibition)
Experimental: Cotton leaf discs were placed on agar in 24-well microtiter plates and sprayed with aqueous test solutions prepared from 10′000 ppm DMSO stock solutions. After drying the leaf discs were infested with five L1 larvae. The samples were assessed for mortality, anti-feedant effect, and growth inhibition 3 days after infestation. Control of Spodoptera littoralis by a test sample is noted when at least one of mortality, anti-feedant effect, and growth inhibition is better than the untreated sample.

[8] = tested on: Diabrotica balteata; experiment: Diabrotica balteata (corn root worm), sprayed maize sprouts; settings: 96 h, application rate 200 ppm, L2 larvae on sprayed maize sprouts, 4 days after infestation, read-out: control (at least one of mortality, growth inhibition)
Experimental: Maize sprouts, placed on an agar layer in 24-well microtiter plates were treated with aqueous test solutions prepared from 10′000 ppm DMSO stock solutions by spraying. After drying, the plates were infested with L2 larvae (6 to 10 per well). The samples were assessed for mortality and growth inhibition 4 days after infestation. Control of Diabrotica balteata by a test sample is noted when at least one of mortality and growth inhibition is better than the untreated sample.

Cc1cc(C2=CSC(c3cc(Cl)cc(Cl)c3)(C(F)(F)F)C2)ccc1C(=O)NC1CS(=O)(=O)C1 (stereo not shown) [Compound A4, 4-[2-(3,5-dichlorophenyl)-2-(trifluoromethyl)-3H-thiophen-4-yl]-N-(1,1-dioxothietan-3-yl)-2-methyl-benzamide]
≥ 80%: mortality at 50 ppm [1] | mortality at 200 ppm [2] | mortality at 200 ppm [3] | mortality at 200 ppm [4] | mortality at 200 ppm [5] | mortality at 200 ppm [6] | percent control (mortality, anti-feedant effect or growth inhibition) at 200 ppm [7]

Cc1cc(C2=CSC(c3cc(Cl)cc(Cl)c3)(C(F)(F)F)C2)ccc1C(=O)N[C@H]1C[S@@+]([O-])C1 (stereo partly shown) [Compound A7, 4-[2-(3,5-dichlorophenyl)-2-(trifluoromethyl)-3H-thiophen-4-yl]-2-methyl-N-(1-oxidothietan-1-ium-3-yl)benzamide]
≥ 80%: mortality at 50 ppm [1] | mortality at 200 ppm [2] | mortality at 200 ppm [3] | mortality at 200 ppm [4] | mortality at 200 ppm [5] | mortality at 200 ppm [6] | percent control (mortality, anti-feedant effect or growth inhibition) at 200 ppm [7]

Cc1cc(C2=CS[C@@](c3cc(Cl)cc(Cl)c3)(C(F)(F)F)C2)ccc1C(=O)N[C@H]1C[S@@+]([O-])C1 [Compound D8, 4-[(2S)-2-(3,5-dichlorophenyl)-2-(trifluoromethyl)-3H-thiophen-4-yl]-2-methyl-N-(1-oxothietan-3-yl)benzamide]
≥ 80%: mortality at 200 ppm [2] | mortality at 200 ppm [3] | mortality at 200 ppm [8] | mortality at 200 ppm [6] | percent control (mortality, anti-feedant effect or growth inhibition) at 200 ppm [7]

Cc1cc(C2=CSC(c3cc(Cl)cc(Cl)c3)(C(F)(F)F)C2)ccc1C(=O)NCC(F)(F)F (stereo not shown) [Compound A2, 4-[2-(3,5-dichlorophenyl)-2-(trifluoromethyl)-3H-thiophen-4-yl]-2-methyl-N-(2,2,2-trifluoroethyl)benzamide]
≥ 80%: mortality at 50 ppm [1] | mortality at 200 ppm [2] | mortality at 200 ppm [3] | mortality at 200 ppm [4] | mortality at 200 ppm [5] | mortality at 200 ppm [6] | percent control (mortality, anti-feedant effect or growth inhibition) at 200 ppm [7]

Cc1cc(C2=CSC(c3cc(Cl)cc(Cl)c3)(C(F)(F)F)C2)ccc1C(=O)NCC(=O)NCC(F)(F)F (stereo not shown) [Compound A3, 4-[2-(3,5-dichlorophenyl)-2-(trifluoromethyl)-3H-thiophen-4-yl]-2-methyl-N-[2-oxo-2-(2,2,2-trifluoroethylamino)ethyl]benzamide]
≥ 80%: mortality at 50 ppm [1] | mortality at 200 ppm [2] | mortality at 200 ppm [3] | mortality at 200 ppm [4] | mortality at 200 ppm [5] | mortality at 200 ppm [6] | percent control (mortality, anti-feedant effect or growth inhibition) at 200 ppm [7]

N#Cc1cc(C2=CSC(c3cc(Cl)c(Cl)c(Cl)c3)(C(F)(F)F)C2)ccc1-n1cncn1 (stereo not shown) [Compound C1, 2-(1,2,4-triazol-1-yl)-5-[2-(3,4,5-trichlorophenyl)-2-(trifluoromethyl)-3H-thiophen-4-yl]benzonitrile]
≥ 80%: mortality at 200 ppm [3] | mortality at 200 ppm [4] | mortality at 200 ppm [5] | percent control (mortality, anti-feedant effect or growth inhibition) at 200 ppm [7]

Cc1cc(C2=CSC(c3cc(Cl)cc(Cl)c3)(C(F)(F)F)C2)ccc1C(=O)NCc1ccccn1 (stereo not shown) [Compound A8, 4-[2-(3,5-dichlorophenyl)-2-(trifluoromethyl)-3H-thiophen-4-yl]-2-methyl-N-(2-pyridylmethyl)benzamide]
≥ 80%: mortality at 200 ppm [2] | mortality at 200 ppm [3] | mortality at 200 ppm [4] | mortality at 200 ppm [5] | mortality at 200 ppm [6] | percent control (mortality, anti-feedant effect or growth inhibition) at 200 ppm [7]

Cc1cc(C2=C[S+]([O-])C(c3cc(Cl)cc(Cl)c3)(C(F)(F)F)C2)ccc1C(=O)NCC(F)(F)F (stereo not shown) [Compound B1, 4-[2-(3,5-dichlorophenyl)-1-oxido-2-(trifluoromethyl)-3H-thiophen-1-ium-4-yl]-2-methyl-N-(2,2,2-trifluoroethyl)benzamide]
≥ 80%: mortality at 200 ppm [3] | mortality at 200 ppm [5] | percent control (mortality, anti-feedant effect or growth inhibition) at 200 ppm [7]

CCN1OC[C@@H](NC(=O)c2ccc(C3=CSC(c4cc(Cl)cc(Cl)c4)(C(F)(F)F)C3)cc2C)C1=O (stereo partly drawn) [Compound A9, 4-[2-(3,5-dichlorophenyl)-2-(trifluoromethyl)-3H-thiophen-4-yl]-N-[(4R)-2-ethyl-3-oxo-isoxazolidin-4-yl]-2-methyl-benzamide]
≥ 80%: mortality at 50 ppm [1] | mortality at 200 ppm [2] | mortality at 200 ppm [3] | mortality at 200 ppm [4] | mortality at 200 ppm [5] | mortality at 200 ppm [6] | percent control (mortality, anti-feedant effect or growth inhibition) at 200 ppm [7]

CCN1OC[C@@H](NC(=O)c2ccc(C3=CS[C@@](c4cc(Cl)cc(Cl)c4)(C(F)(F)F)C3)cc2C)C1=O [Compound D7, 4-[(2S)-2-(3,5-dichlorophenyl)-2-(trifluoromethyl)-3H-thiophen-4-yl]-N-(2-ethyl-3-oxo-isoxazolidin-4-yl)-2-methyl-benzamide]
≥ 80%: mortality at 200 ppm [2] | mortality at 200 ppm [3] | mortality at 200 ppm [8] | mortality at 200 ppm [6] | percent control (mortality, anti-feedant effect or growth inhibition) at 200 ppm [7]

Cc1cc(C2=CSC(c3cc(Cl)cc(Cl)c3)(C(F)(F)F)C2)ccc1C(=O)NC1CSC1 (stereo not shown) [Compound A5, 4-[2-(3,5-dichlorophenyl)-2-(trifluoromethyl)-3H-thiophen-4-yl]-2-methyl-N-(thietan-3-yl)benzamide]
≥ 80%: mortality at 50 ppm [1] | mortality at 200 ppm [2] | mortality at 200 ppm [3] | mortality at 200 ppm [4] | mortality at 200 ppm [5] | mortality at 200 ppm [6] | percent control (mortality, anti-feedant effect or growth inhibition) at 200 ppm [7]

Cc1cc(C2=CSC(c3cc(Cl)cc(Cl)c3)(C(F)(F)F)C2)ccc1C(=O)NC1CCC1 (stereo not shown) [Compound A1, N-cyclobutyl-4-[2-(3,5-dichlorophenyl)-2-(trifluoromethyl)-3H-thiophen-4-yl]-2-methyl-benzamide]
≥ 80%: mortality at 50 ppm [1] | mortality at 200 ppm [2] | mortality at 200 ppm [3] | mortality at 200 ppm [4] | mortality at 200 ppm [5] | mortality at 200 ppm [6] | percent control (mortality, anti-feedant effect or growth inhibition) at 200 ppm [7]

Cc1cc(C2=CSC(c3cc(Cl)cc(Cl)c3)(C(F)(F)F)C2)ccc1C(N)=O (stereo not shown) [Compound A6, 4-[2-(3,5-dichlorophenyl)-2-(trifluoromethyl)-3H-thiophen-4-yl]-2-methyl-benzamide]
≥ 80%: mortality at 200 ppm [3] | mortality at 200 ppm [4] | mortality at 200 ppm [5] | percent control (mortality, anti-feedant effect or growth inhibition) at 200 ppm [7]

Cc1cc(C2=CS(=O)(=O)C(c3cc(Cl)cc(Cl)c3)(C(F)(F)F)C2)ccc1C(=O)NCC(F)(F)F (stereo not shown) [Compound B2, 4-[2-(3,5-dichlorophenyl)-1,1-dioxo-2-(trifluoromethyl)-3H-thiophen-4-yl]-2-methyl-N-(2,2,2-trifluoroethyl)benzamide]
≥ 80%: mortality at 200 ppm [3] | mortality at 200 ppm [4] | mortality at 200 ppm [5] | percent control (mortality, anti-feedant effect or growth inhibition) at 200 ppm [7]

CON/C=N/C(=O)c1ccc(C2=CSC(c3cc(Cl)cc(Cl)c3)(C(F)(F)F)C2)cc1C (stereo not shown) [Compound A10, (NE)-4-[2-(3,5-dichlorophenyl)-2-(trifluoromethyl)-3H-thiophen-4-yl]-N-[(methoxyamino)methylene]-2-methyl-benzamide]
≥ 80%: mortality at 200 ppm [3] | mortality at 200 ppm [4] | mortality at 200 ppm [5] | mortality at 200 ppm [6] | percent control (mortality, anti-feedant effect or growth inhibition) at 200 ppm [7]
